The text below walks through data of article PMC4279406, “Simultaneous targeting of PI3Kδ and a PI3Kδ-dependent MEK1/2-Erk1/2 pathway for therapy in pediatric B-cell acute lymphoblastic leukemia” (Oncotarget, 2014).

For one test, the system named is Rh30-Myr-p110α cells. The test can be described thus: Akt phosphorylation in isogenic Rh30-Myr-p110 cells (Western blot). The test is classed as cell-based. Conditions: Homo sapiens, serum-free 12 h, compound 1 h, band intensity, mean of three experiments. From the text: (§1) To assess the selectivity of X-370 in the context of an isogenic cellular background, we generated a panel of Rh30 human rhabdomyosarcoma cell lines each of which stably expresses a single myristoylated (Myr)-epitope tagged p110 human class I PI3K catalytic subunit, termed as Rh30-Myr-p110α, Rh30-Myr-p110β, Rh30-Myr-p110γ or Rh30-Myr-p110δ. In these cells, endogenous PI3K is not activated under serum-free culture conditions, whereas the ectopically expressed p110 isoforms are membrane-anchored and constitutively active due to myristoylation at N-terminal. Utilizing this cell panel, isoform-specific PI3K activity can be determined for any given inhibitor[25]. These cells were treated with X-370 and phosphorylated Akt was detected as the readout of PI3K activity. X-370 inhibited phosphorylation of Akt at both Thr308 and Ser473 in a dose-dependent manner in four tested cell lines (Figure 2A). […] Similar property was also observed in CAL-101 (Figure S2).
(§2) Cell lysates were probed with indicated antibodies. The IC50 values were calculated based on relative band intensity measured with ImageQuant™ TL (GE Healthcare Life Sciences, Piscataway, NJ) (B). Data shown are mean values from three independent experiments. (C, D, E, F) X-370 blocked stimuli-triggered PI3Kδ activation. MEF cells and THP-1 were starved in serum-free medium for 12 h or 4 h respectively and X-370 were added for an additional 1 h treatment following stimulation of IGF-1 at 100 ng/ml for MEF cells (C), LPA at 10 μM for MEF cells (D), MCP-1 at 100ng/ml for THP-1 (E) and M-CSF at 50 ng/ml for THP-1 (F). Similar results were derived from 3 independent experiments. TEXT PRINTED IN THE PICTURE: (B) X-370: IC50 (μM) in Rh30-Myr-p110s, Akt pT308, PI3Kα: 0.68; IC50 (μM) in Rh30-Myr-p110s, Akt pT308, PI3Kβ: 0.4; IC50 (μM) in Rh30-Myr-p110s, Akt pT308, PI3Kγ: 0.46; IC50 (μM) in Rh30-Myr-p110s, Akt pT308, PI3Kδ: 0.032; IC50 (μM) in Rh30-Myr-p110s, Akt pS473, PI3Kα: 0.53; IC50 (μM) in Rh30-Myr-p110s, Akt pS473, PI3Kβ: 0.29; IC50 (μM) in Rh30-Myr-p110s, Akt pS473, PI3Kγ: 0.23; IC50 (μM) in Rh30-Myr-p110s, Akt pS473, PI3Kδ: 0.02 DOUBTS OF THE COPYIST ABOUT THIS PICTURE: Panel B prints no substance label in the table itself; the label X-370 is taken from the other panels of the same picture, where it is the only substance printed. […]
(§3) Cells were treated as indicated conditions and then subjected to lysate to perform standard Western blot as described previously1. Briefly, whole-cell lysates and SDS-loading buffer diluted cell fractions were analyzed on SDS-PAGE gels. Transfer to nitrocellulose membranes, nonfat milk blocking, probing with indicated primary antibodies and the corresponding HRP-conjugated second antibodies.
(§4) Chemiluminescence were performed and captured using ImageQuant LAS 4000 (GE healthcare Life Sciences, Piscataway, NJ, USA) and band intensity was measure both with ImageQuant™ TL (GE Healthcare Life Sciences) 2. […]
(§5) (also on this page, place not known: PI3Kδ -dependent MEK1/2 - B -cell previously 1. whole -cell SDS -loading SDS -PAGE HRP -conjugated (G E A B Val828 Trp760 Thr750 Met752 Tyr813 affinity pocket specificity pocket hinge Glu826 CAL-101 X-370) […]
(§6) (1 picture or pasted object on this page, not shown here)

For another test, the system named is Rh30-Myr-p110γ cells. The test is described as above. Type of test: cell-based. To be noted: Homo sapiens, serum-free 12 h, compound 1 h, band intensity, mean of three experiments.
Text: as §1, §2, §3, §4, §5, §6

The subject of test [1] is PDK1 and MEK1/2 association in Raji cells. The experiment in a line: PDK1 immunoprecipitation, association with MEK1/2. The test is classed as cell-based, human. Conditions: 1 μM, 1 h, anti-PDK1 immunoprecipitation. Here is the method:
Figure 5 Inhibition of Erk1/2 phosphorylation by X-370 contributed to its antiproliferative activity (A-C) X-370 inhibited Erk1/2 phosphorylation via PI3K-PDK1-MEK1/2 cascade but not the PI3K-Gab1 positive feedback loop. (A) Raji and SU-DHL-6 cells were exposed to 1 μM X370 for 3 h and protein fraction from cellular membrane was separated using Native Membrane Protein Extraction Kit and probed. WCL: whole cell lysate. (B) Inhibition of PDK1 or MEK1/2 abrogated Erk1/2 phosphorylation. Cells were treated with pharmacological inhibitors of Raf (AZ 628, PLX4032), MEK1/2 (AZD6244), p90RSK (BI-D1870), PI3Kδ (X-370), PDK1 (BX-912), Akt (MK-2206), mTOR (AZD8055) or mTORC1 (Rapamycin) respectively and indicated proteins were detected. (C) X-370 disrupted the association between PDK1 and MEK1/2. Raji cells were treated with 1 μM X370 for 1 h and cell lysates were immunoprecipitated with anti-PDK1 antibody and indicated proteins were detected. WCL: whole cell lysate. […] (E) Raji and Raji MEK DD cells were treated with X-370 for 72 h and cell proliferation was detected by CCK-8 assay. (F) Raji MEK DD cells were treated with X-370 and AZD6244 and cell proliferation was detected by CCK-8 assay. Data were show as mean ± SD of three independent experiments. *: p < 0.05 determined by t-tests at each data point. […]

Like-named read-outs stand apart in the source and are kept apart here.

On to `O=C(N1CCCC1)N1CCC(n2cnc3c(-n4c(C(F)F)nc5ccccc54)nc(N4CCOCC4)nc32)CC1` [X-370], for which the IC50 was found to be 0.53 µM with Rh30-Myr-p110α cells (read-out: IC50 (μM) in Rh30-Myr-p110s, Akt pS473, PI3Kα); 0.68 µM in the test with Rh30-Myr-p110α cells (read-out: IC50 (μM) in Rh30-Myr-p110s, Akt pT308, PI3Kα); 0.23 µM with Rh30-Myr-p110γ cells (read-out: IC50 (μM) in Rh30-Myr-p110s, Akt pS473, PI3Kγ); 0.46 µM with Rh30-Myr-p110γ cells (read-out: IC50 (μM) in Rh30-Myr-p110s, Akt pT308, PI3Kγ). Besides, the “association between PDK1 and MEK1/2” value in test [1] was “dissociation of MEK1/2 and PDK1”.
